Results taken from PMC1664607 (PLoS Medicine, 2006).
Converted amounts (≈) assume the structure as drawn. Like-named read-outs stand apart in the source and are kept apart here.

Assays:
CYP2C8/9 = assay: Tolubutamide methylhydroxylation in human liver microsomes; format: in vitro ADME; details: 100 μM; 400 μM tolbutamide
S. typhimurium TA1535 = assay: Bacterial reverse mutation (BRM) test; format: cell-based; details: S9 mix −; positive control NaN3 0.5 μg/plate
Protocol: (§1) The BRM test was performed in accordance with OECD Guideline 471 using Salmonella tyiphimurium TA98, TA100, TA1535, and TA1537, and Escherichia coli WP2 uvrA [11]. Each bacterial strain was pre-cultured at 37 °C for 18 h using a nutrient broth (Nissui Pharmaceutical; http://www.nissui-pharm.co.jp/index_e.html). After adjustment to 2.4 at OD660 nm, each bacterial suspension was added to a test tube containing the designated compound in the absence or presence of rat liver microsome (S9) mix. After a 20-min incubation at 37 °C, top agar was added to each test tube and the contents were poured into minimum essential medium (Oriental Yeast; http://www.oyc.co.jp/e/index.htm). The number of revertants was counted 48 h after incubation at 37 °C.

S. typhimurium TA1537 = assay: Bacterial reverse mutation (BRM) test; format: cell-based; details: S9 mix −; positive control ACR 80 μg/plate
Protocol: as §1

[1] = tested on: M. tuberculosis ATCC 25618 (H37Rv); assay: Susceptibility testing (agar dilution MIC); format: cell-based; details: Mycobacterium tuberculosis, 336 h
[2] = tested on: M. tuberculosis ATCC 35838 (H37Rv-R-R); assay: microbe, parasite or virus in culture; format: cell-based; details: Mycobacterium tuberculosis, 336 h
[3] = tested on: M. tuberculosis ATCC 35822 (H37Rv-H-R); assay: microbe, parasite or virus in culture; format: cell-based; details: Mycobacterium tuberculosis, 336 h
[4] = tested on: M. tuberculosis ATCC 35837 (H37Rv-E-R); assay: microbe, parasite or virus in culture; format: cell-based; details: Mycobacterium tuberculosis, 336 h
[5] = tested on: M. tuberculosis ATCC 35820 (H37Rv-S-R); assay: microbe, parasite or virus in culture; format: cell-based; details: Mycobacterium tuberculosis, 336 h
[6] = tested on: M. tuberculosis ATCC 35812 (Kurono); assay: Susceptibility testing (agar dilution MIC); format: cell-based; details: Mycobacterium tuberculosis, ATCC35812, 336 h
[7] = tested on: intracellular M. tuberculosis H37Rv in THP-1 cells; assay: Activity against intracellular mycobacteria, 4-h pulsed exposure; format: cell-based, M. tuberculosis; human THP-1 cells; details: further 68-h culture
M. tuberculosis Kurono = assay: Therapeutic efficacy in an experimental mouse model of chronic TB; format: in vivo, ICR mice; details: for Dose that could produce a CFU reduction of at least 95%: lung; for Dose that could produce a CFU reduction of at least 95% / Dose groups that showed a significant decrease in pulmonary viable bacterial count when compared with the vehicle control group: once daily for 28 d
[8] = Plasma levels in an experimental mouse model of TB; details: in vivo, po
CYP1A1/2 = assay: 7-Ethoxyresorufin O-deethylation in human liver microsomes; format: in vitro ADME; details: 100 μM; 0.5 μM 7-ethoxyresorufin
[9] = tested on: clinically isolated M. tuberculosis; assay: microbe, parasite or virus in culture; format: cell-based; details: Mycobacterium tuberculosis; read-out: MIC90
[10] = mouse, in vivo, po
[11] = 7H11 agar, 37 °C, 14 d, read-out: MIC

O=c1c(O)c(-c2ccc(O)c(O)c2)oc2cc(O)cc(O)c12 [Quercetin, quercetin]
Percent of Control (CYP2C8/9): 30.6% of Control

Nc1ccc(S(=O)(=O)Nc2ccnn2-c2ccccc2)cc1 [Sulfaphenazole, sulfaphenazole]
Percent of Control (CYP2C8/9): 25.5% of Control

[N-]=[N+]=[N-].[Na+] [NaN3, sodium azide]
Revertants/Plate (S. typhimurium TA1535): 6 174 Revertants/Plate

Nc1c2ccccc2nc2ccccc12 [ACR, 9-aminoacridine]
Revertants/Plate (S. typhimurium TA1537): 64 953 Revertants/Plate

CCC1Cn2cc([N+](=O)[O-])nc2O1 (stereo not drawn) [CGI-17341]
MIC [1, 11]: 0.2 µg/mL (≈ 1.09 µM) | MIC [2]: 0.05 µg/mL (≈ 0.273 µM) | MIC [3]: 0.2 µg/mL (≈ 1.09 µM) | MIC [4]: 0.2 µg/mL (≈ 1.09 µM) | MIC [5]: 0.2 µg/mL (≈ 1.09 µM) | MIC [6, 11]: 0.2 µg/mL (≈ 1.09 µM)

O=[N+]([O-])c1cn2c(n1)OC[C@@H](OCc1ccc(OC(F)(F)F)cc1)C2 [PA-824]
MIC [1]: 0.2 µg/mL (≈ 0.557 µM) | MIC [2]: 0.1 µg/mL (≈ 0.278 µM) | MIC [3]: 0.05 µg/mL (≈ 0.139 µM) | MIC [4]: 0.2 µg/mL (≈ 0.557 µM) | MIC [5]: 0.2 µg/mL (≈ 0.557 µM) | MIC [6]: 0.2 µg/mL (≈ 0.557 µM) | Activity against intracellular M. tuberculosis H37Rv [7]: poor activity | Log of Viable Counts/Lung (M. tuberculosis Kurono; 1.25 mg/kg, 672 h): 6.905 ± 0.382^c:NS, d:NS | Log of Viable Counts/Lung (M. tuberculosis Kurono; 2.5 mg/kg, 672 h): 6.567 ± 0.108^c:NS, d:NS | Log of Viable Counts/Lung (M. tuberculosis Kurono; 5 mg/kg, 672 h): 6.329 ± 0.303^c:NS, d:NS | Log of Viable Counts/Lung (M. tuberculosis Kurono; 10 mg/kg, 672 h): 6.244 ± 0.728^c:NS, d:NS | Log of Viable Counts/Lung (M. tuberculosis Kurono; 20 mg/kg, 672 h): 4.688 ± 0.944^c:**, d:** | Log of Viable Counts/Lung (M. tuberculosis Kurono; 40 mg/kg, 672 h): 5.145 ± 0.444^c:**, d:**

NC(=O)c1cnccn1 [PZA, pyrazinamide]
Log of Viable Counts/Lung (M. tuberculosis Kurono; 40 mg/kg, 672 h): 6.942 ± 0.205^a:NS, b:NS | Log of Viable Counts/Lung (M. tuberculosis Kurono; 80 mg/kg, 672 h): 6.168 ± 0.774^a:*, b:NS | Log of Viable Counts/Lung (M. tuberculosis Kurono; 160 mg/kg, 672 h): 5.823 ± 0.628^a:**, b:* | Log of Viable Counts/Lung (M. tuberculosis Kurono; 320 mg/kg, 672 h): 5.009 ± 0.539^a:**, b:** | Dose that could produce a CFU reduction of at least 95% (M. tuberculosis Kurono): 160 mg/kg | Dose groups that showed a significant decrease in pulmonary viable bacterial count when compared with the vehicle control group (M. tuberculosis Kurono): 80, 160, and 320 mg/kg | AUC(0-t) [8]: 197000 ng·h/mL | concentration at 0.083 h [8]: 49600 ± 11200 ng/mL | concentration at 0.25 h [8]: 59100 ± 14100 ng/mL | concentration at 0.5 h [8]: 63200 ± 28900 ng/mL | concentration at 1 h [8]: 60200 ± 18700 ng/mL | concentration at 2 h [8]: 35500 ± 6450 ng/mL | concentration at 4 h [8]: 18400 ± 3090 ng/mL | AUC(0-t) ([8]; 100 mg/kg): 198000 ng·h/mL | Cmax ([8]; 100 mg/kg): 63200 ng/mL | Tmax ([8]; 100 mg/kg): 0.5 h | half-life ([8]; 100 mg/kg): 1.1 h

O=c1cc(-c2ccccc2)oc2c1ccc1ccccc12 [7,8-Benzoflavone, 7,8-benzoflavone]
Percent of Control (CYP1A1/2): 3.8% of Control

CN[C@@H]1[C@H](O[C@H]2[C@H](O[C@H]3[C@H](O)[C@@H](O)[C@H](N=C(N)N)[C@@H](O)[C@@H]3N=C(N)N)O[C@@H](C)[C@]2(O)C=O)O[C@@H](CO)[C@H](O)[C@H]1O [SM, streptomycin]
MIC [1]: 1.56 µg/mL (≈ 2.68 µM) | MIC [2]: 0.78 µg/mL (≈ 1.34 µM) | MIC [3]: 0.78 µg/mL (≈ 1.34 µM) | MIC [4]: 0.78 µg/mL (≈ 1.34 µM) | MIC [5]: > 100 µg/mL | MIC [6]: 0.78 µg/mL (≈ 1.34 µM) | MIC90 [9]: 2.94 µg/mL (≈ 5.05 µM) | Log of Viable Counts/Lung (M. tuberculosis Kurono; 20 mg/kg, 672 h): 6.000 ± 0.553^a:**, b:* | Log of Viable Counts/Lung (M. tuberculosis Kurono; 40 mg/kg, 672 h): 6.040 ± 0.361^a:**, b:* | Log of Viable Counts/Lung (M. tuberculosis Kurono; 80 mg/kg, 672 h): 5.739 ± 0.309^a:**, b:** | Log of Viable Counts/Lung (M. tuberculosis Kurono; 160 mg/kg, 672 h): 5.184 ± 0.461^a:**, b:** | Dose that could produce a CFU reduction of at least 95% (M. tuberculosis Kurono): 40 mg/kg | Dose groups that showed a significant decrease in pulmonary viable bacterial count when compared with the vehicle control group (M. tuberculosis Kurono): 20, 40, 80, and 160 mg/kg

CC[C@@H](CO)NCCN[C@@H](CC)CO [EB, ethambutol]
MIC [1]: 1.56 µg/mL (≈ 7.64 µM) | MIC [2]: 1.56 µg/mL (≈ 7.64 µM) | MIC [3]: 3.13 µg/mL (≈ 15.3 µM) | MIC [4]: 50 µg/mL (≈ 245 µM) | MIC [5]: 3.13 µg/mL (≈ 15.3 µM) | MIC [6]: 3.13 µg/mL (≈ 15.3 µM) | MIC90 [9]: 3.64 µg/mL (≈ 17.8 µM) | Log of Viable Counts/Lung (M. tuberculosis Kurono; 20 mg/kg, 672 h): 6.923 ± 0.721^a:NS, b:NS | Log of Viable Counts/Lung (M. tuberculosis Kurono; 40 mg/kg, 672 h): 6.696 ± 0.382^a:NS, b:NS | Log of Viable Counts/Lung (M. tuberculosis Kurono; 80 mg/kg, 672 h): 6.429 ± 0.475^a:NS, b:NS | Log of Viable Counts/Lung (M. tuberculosis Kurono; 160 mg/kg, 672 h): 5.642 ± 0.120^a:**, b:** | Dose that could produce a CFU reduction of at least 95% (M. tuberculosis Kurono): > 160 mg/kg | Dose groups that showed a significant decrease in pulmonary viable bacterial count when compared with the vehicle control group (M. tuberculosis Kurono): 160 mg/kg | AUC(0-t) [8]: 12200 ng·h/mL | concentration at 0.083 h [8]: 55 ± 49 ng/mL | concentration at 0.25 h [8]: 1300 ± 939 ng/mL | concentration at 0.5 h [8]: 3170 ± 392 ng/mL | concentration at 1 h [8]: 3510 ± 1130 ng/mL | concentration at 2 h [8]: 2510 ± 1010 ng/mL | concentration at 4 h [8]: 1020 ± 202 ng/mL | AUC(0-t) ([8]; 100 mg/kg): 12100 ng·h/mL | Cmax ([8]; 100 mg/kg): 3510 ng/mL | Tmax ([8]; 100 mg/kg): 1 h | half-life ([8]; 100 mg/kg): 2.8 h

CO[C@H]1/C=C/O[C@@]2(C)Oc3c(C)c(O)c4c(O)c(c(/C=N/N5CCN(C)CC5)c(O)c4c3C2=O)NC(=O)/C(C)=C\C=C\[C@H](C)[C@H](O)[C@@H](C)[C@@H](O)[C@@H](C)[C@H](OC(C)=O)[C@@H]1C [RFP, rifampicin]
MIC [1, 11]: 0.78 µg/mL (≈ 0.948 µM) | MIC [2]: > 100 µg/mL | MIC [3]: 0.39 µg/mL (≈ 0.474 µM) | MIC [4]: 0.2 µg/mL (≈ 0.243 µM) | MIC [5]: 0.78 µg/mL (≈ 0.948 µM) | MIC [6, 11]: 0.39 µg/mL (≈ 0.474 µM) | MIC90 [9]: 0.288 µg/mL (≈ 0.35 µM) | Log of Viable Counts/Lung (M. tuberculosis Kurono; 1.25 mg/kg once daily for 28 d (4 weeks), mean ± S.D., n = 5): 7.409 ± 0.201^c:NS, d:NS | Log of Viable Counts/Lung (M. tuberculosis Kurono; 10 mg/kg once daily for 28 d (4 weeks), mean ± S.D., n = 5): 3.972 ± 0.596^c:**, d:** | Log of Viable Counts/Lung (M. tuberculosis Kurono; 20 mg/kg once daily for 28 d (4 weeks), mean ± S.D., n = 5): 3.279 ± 0.330^c:**, d:** | Dose that could produce a CFU reduction of at least 95% (M. tuberculosis Kurono): 3.5 mg/kg | Concentration, 0.5 h [10]: 3330 ± 870 ng/mL | Concentration, 1 h [10]: 4490 ± 1040 ng/mL | Concentration, 2 h [10]: 4520 ± 1900 ng/mL | Concentration, 4 h [10]: 3820 ± 700 ng/mL | Concentration, 6 h [10]: 5100 ± 1630 ng/mL | Concentration, 16 h [10]: 660 ± 260 ng/mL | AUC(0-t) ([8]; 5 mg/kg): 48200 ng·h/mL | Cmax ([8]; 5 mg/kg): 5100 ng/mL | Tmax ([8]; 5 mg/kg): 6 h

Cc1nc2c([nH]1)c(=O)n(C)c(=O)n2Cc1ccco1 [Furafylline, furafylline]
Percent of Control (CYP1A1/2): 32.3% of Control
